pKi: −log10 of the molar value.
Experiments:
[1] = biological target: T1, Prostaglandin D2 receptor (Homo sapiens, UniProt Q13258); experiment: Binding affinity to human DP receptor expressed in HEK293 cells; type: cell-based
T1 sequence (Q13258 whole entry): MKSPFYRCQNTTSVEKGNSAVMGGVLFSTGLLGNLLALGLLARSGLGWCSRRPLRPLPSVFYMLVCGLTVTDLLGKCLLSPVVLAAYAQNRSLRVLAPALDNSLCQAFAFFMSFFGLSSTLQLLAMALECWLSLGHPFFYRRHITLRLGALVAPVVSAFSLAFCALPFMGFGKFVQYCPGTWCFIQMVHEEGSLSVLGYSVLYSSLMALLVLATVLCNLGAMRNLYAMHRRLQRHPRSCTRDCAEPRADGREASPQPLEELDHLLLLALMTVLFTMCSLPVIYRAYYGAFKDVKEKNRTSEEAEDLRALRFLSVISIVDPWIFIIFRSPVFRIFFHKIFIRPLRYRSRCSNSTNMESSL

[2] = biological target: T2, Prostaglandin E2 receptor EP3 subtype (Homo sapiens, UniProt P43115); experiment: Binding affinity to human EP3 receptor expressed in HEK293 cells; type: cell-based
T2 sequence (P43115 whole entry): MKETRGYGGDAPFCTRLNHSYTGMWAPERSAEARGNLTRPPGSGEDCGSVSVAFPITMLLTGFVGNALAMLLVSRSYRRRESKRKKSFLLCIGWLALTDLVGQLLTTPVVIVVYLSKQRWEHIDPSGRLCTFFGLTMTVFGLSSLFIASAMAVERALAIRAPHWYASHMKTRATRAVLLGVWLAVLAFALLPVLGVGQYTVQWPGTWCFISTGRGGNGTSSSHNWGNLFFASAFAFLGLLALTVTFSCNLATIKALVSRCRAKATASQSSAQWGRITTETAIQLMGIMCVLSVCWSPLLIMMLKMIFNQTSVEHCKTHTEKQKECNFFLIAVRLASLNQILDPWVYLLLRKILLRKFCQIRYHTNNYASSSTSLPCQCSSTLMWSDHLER

[3] = biological target: Prostaglandin E2 receptor EP2 subtype (Homo sapiens, UniProt P43116); experiment: Binding affinity to human EP2 receptor expressed in HEK293 cells; type: cell-based
[4] = biological target: T3, Prostaglandin E2 receptor EP1 subtype (Homo sapiens, UniProt P34995); experiment: Binding affinity to human EP1 receptor expressed in HEK293 cells; type: cell-based
T3 sequence (P34995 whole entry): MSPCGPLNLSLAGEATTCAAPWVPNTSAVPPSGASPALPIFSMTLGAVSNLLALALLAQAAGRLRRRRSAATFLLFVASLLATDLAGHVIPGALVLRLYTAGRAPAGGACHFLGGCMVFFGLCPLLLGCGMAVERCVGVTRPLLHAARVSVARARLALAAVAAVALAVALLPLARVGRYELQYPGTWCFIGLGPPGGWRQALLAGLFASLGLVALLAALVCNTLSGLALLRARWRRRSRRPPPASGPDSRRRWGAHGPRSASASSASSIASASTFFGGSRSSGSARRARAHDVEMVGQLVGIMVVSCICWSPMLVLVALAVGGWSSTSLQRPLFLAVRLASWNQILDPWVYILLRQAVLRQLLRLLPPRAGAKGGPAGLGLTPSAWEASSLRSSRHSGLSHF

[5] = biological target: T4, Thromboxane A2 receptor (Homo sapiens, UniProt P21731); experiment: Binding affinity to human TP receptor expressed in HEK293 cells; type: cell-based
T4 sequence (P21731 whole entry): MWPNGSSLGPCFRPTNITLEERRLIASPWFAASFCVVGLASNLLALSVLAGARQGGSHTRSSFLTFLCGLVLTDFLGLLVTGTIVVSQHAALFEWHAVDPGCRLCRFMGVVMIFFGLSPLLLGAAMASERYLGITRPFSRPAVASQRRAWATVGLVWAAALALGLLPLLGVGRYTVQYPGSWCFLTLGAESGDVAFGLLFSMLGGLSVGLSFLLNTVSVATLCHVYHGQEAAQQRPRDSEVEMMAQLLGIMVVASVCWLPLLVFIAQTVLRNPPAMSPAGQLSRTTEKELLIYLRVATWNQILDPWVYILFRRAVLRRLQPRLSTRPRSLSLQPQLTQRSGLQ

[6] = biological target: Prostaglandin F2-alpha receptor (Homo sapiens, UniProt P43088); experiment: Binding affinity to human FP receptor expressed in HEK293 cells; type: cell-based
[7] = biological target: Prostacyclin receptor (Homo sapiens, UniProt P43119); experiment: Binding affinity to human IP receptor expressed in HEK293 cells; type: cell-based
[8] = organism: Rattus norvegicus; experiment: Antiinflammatory activity against adjuvant-induced rat arthritis model; type: functional
[9] = biological target: T5, Prostaglandin E2 receptor EP4 subtype (Homo sapiens, UniProt P35408); experiment: Binding affinity to human EP4 receptor expressed in HEK293 cells; type: cell-based
[10] = biological target: T5, Prostaglandin E2 receptor EP4 subtype; experiment: Binding affinity to human EP4 receptor expressed in HEK293 cells in presence of 10% human serum; type: cell-based
[11] = Half life in dog at 2 mg/kg, iv; type: ADME, organism-based, Canis lupus familiaris; set-up: dose 2 mg/kg, route intravenous; settings: in vivo
[12] = Clearance in dog at 10 mg/kg, po or 2 mg/kg, iv; type: ADME, organism-based, Canis lupus familiaris; settings: in vivo
[13] = Volume of distribution at steady state in dog at 10 mg/kg, po or 2 mg/kg, iv; type: ADME, organism-based, Canis lupus familiaris; settings: in vivo, read-out: Vdss
[14] = Bioavailability in rat at 20 mg/kg, po or 5 mg/kg, iv; type: ADME, organism-based; settings: in vivo
[15] = Half life in rat at 5 mg/kg, iv; type: ADME, organism-based; set-up: dose 5 mg/kg, route intravenous; settings: in vivo
[16] = Clearance in rat at 20 mg/kg, po or 5 mg/kg, iv; type: ADME, organism-based; settings: in vivo
[17] = Volume of distribution at steady state in rat at 20 mg/kg, po or 5 mg/kg, iv; type: ADME, organism-based; settings: in vivo, read-out: Vdss
[18] = Bioavailability in guinea pig at 20 mg/kg, po or 5 mg/kg, iv; type: ADME, organism-based, Cavia porcellus; settings: in vivo
[19] = Half life in guinea pig at 5 mg/kg, iv; type: ADME, organism-based, Cavia porcellus; set-up: dose 5 mg/kg, route intravenous; settings: in vivo
[20] = Clearance in guinea pig at 20 mg/kg, po or 5 mg/kg, iv; type: ADME, organism-based, Cavia porcellus; settings: in vivo
[21] = Volume of distribution at steady state in guinea pig at 20 mg/kg, po or 5 mg/kg, iv; type: ADME, organism-based, Cavia porcellus; settings: in vivo, read-out: Vdss
[22] = Bioavailability in dog at 10 mg/kg, po or 2 mg/kg, iv; type: ADME, organism-based, Canis lupus familiaris; settings: in vivo
[23] = Volume of distribution at steady state in mouse at 100 mg/kg, po or 10 mg/kg, iv; type: ADME, organism-based; settings: in vivo, read-out: Vdss
[24] = Bioavailability in rat at 20 mg/kg, po or 10 mg/kg, iv; type: ADME, organism-based; settings: in vivo
[25] = Half life in rat at 10 mg/kg, iv; type: ADME, organism-based; set-up: dose 10 mg/kg, route intravenous; settings: in vivo
[26] = Clearance in rat at 20 mg/kg, po or 10 mg/kg, iv; type: ADME, organism-based; settings: in vivo
[27] = Volume of distribution at steady state in rat at 20 mg/kg, po or 10 mg/kg, iv; type: ADME, organism-based; settings: in vivo, read-out: Vdss
[28] = Metabolic stability in rhesus monkey hepatocytes at 20 uM after 2 hrs; type: ADME, cell-based, Macaca mulatta, Hepatocyte; settings: read-out: Stability
[29] = Clearance in dog at 4 mg/kg, po or 5 mg/kg, iv; type: ADME, organism-based, Canis lupus familiaris; settings: in vivo
[30] = Volume of distribution at steady state in rhesus monkey at 4 mg/kg, po or 2 mg/kg, iv; type: ADME, organism-based, Macaca mulatta; settings: in vivo, read-out: Vdss
[31] = Clearance in rhesus monkey at 4 mg/kg, po or 2 mg/kg, iv; type: ADME, organism-based, Macaca mulatta; settings: in vivo
[32] = Half life in rhesus monkey at 2 mg/kg, iv; type: ADME, organism-based, Macaca mulatta; set-up: dose 2 mg/kg, route intravenous; settings: in vivo
[33] = Bioavailability in rhesus monkey at 4 mg/kg, po or 2 mg/kg, iv; type: ADME, organism-based, Macaca mulatta; settings: in vivo
[34] = Metabolic stability in dog hepatocytes at 20 uM after 2 hrs; type: ADME, cell-based, Canis lupus familiaris, Hepatocyte; settings: read-out: Stability
[35] = Metabolic stability in rat hepatocytes at 20 uM after 2 hrs; type: ADME, cell-based, Hepatocyte; settings: read-out: Stability
[36] = Volume of distribution at steady state in dog at 4 mg/kg, po or 5 mg/kg, iv; type: ADME, organism-based, Canis lupus familiaris; settings: in vivo, read-out: Vdss
[37] = Half life in dog at 5 mg/kg, iv; type: ADME, organism-based, Canis lupus familiaris; set-up: dose 5 mg/kg, route intravenous; settings: in vivo
[38] = Bioavailability in dog at 4 mg/kg, po or 5 mg/kg, iv; type: ADME, organism-based, Canis lupus familiaris; settings: in vivo
[39] = Metabolic stability in human hepatocytes at 20 uM after 2 hrs; type: ADME, cell-based, Hepatocyte; settings: read-out: Stability
[40] = Half life in mouse at 10 mg/kg, iv; type: ADME, organism-based; set-up: dose 10 mg/kg, route intravenous; settings: in vivo
[41] = Bioavailability in mouse at 100 mg/kg, po or 10 mg/kg, iv; type: ADME, organism-based; settings: in vivo
[42] = Clearance in mouse at 100 mg/kg, po or 10 mg/kg, iv; type: ADME, organism-based; settings: in vivo

T5 sequence (P35408 whole entry): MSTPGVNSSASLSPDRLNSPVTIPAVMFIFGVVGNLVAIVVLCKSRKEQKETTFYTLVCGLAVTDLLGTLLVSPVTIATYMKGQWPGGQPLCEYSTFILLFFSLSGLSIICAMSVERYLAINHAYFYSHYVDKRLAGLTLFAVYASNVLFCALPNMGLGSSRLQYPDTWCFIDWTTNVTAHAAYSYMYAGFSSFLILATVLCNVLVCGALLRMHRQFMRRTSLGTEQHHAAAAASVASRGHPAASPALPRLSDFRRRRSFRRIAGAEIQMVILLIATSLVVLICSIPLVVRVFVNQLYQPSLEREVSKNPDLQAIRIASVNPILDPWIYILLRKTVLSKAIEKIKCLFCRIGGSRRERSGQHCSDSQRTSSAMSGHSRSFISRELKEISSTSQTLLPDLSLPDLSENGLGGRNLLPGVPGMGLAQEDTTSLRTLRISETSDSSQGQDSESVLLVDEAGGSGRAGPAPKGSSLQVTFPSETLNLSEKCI
Prostaglandin E2 receptor EP2 subtype, sequence (P43116 whole entry): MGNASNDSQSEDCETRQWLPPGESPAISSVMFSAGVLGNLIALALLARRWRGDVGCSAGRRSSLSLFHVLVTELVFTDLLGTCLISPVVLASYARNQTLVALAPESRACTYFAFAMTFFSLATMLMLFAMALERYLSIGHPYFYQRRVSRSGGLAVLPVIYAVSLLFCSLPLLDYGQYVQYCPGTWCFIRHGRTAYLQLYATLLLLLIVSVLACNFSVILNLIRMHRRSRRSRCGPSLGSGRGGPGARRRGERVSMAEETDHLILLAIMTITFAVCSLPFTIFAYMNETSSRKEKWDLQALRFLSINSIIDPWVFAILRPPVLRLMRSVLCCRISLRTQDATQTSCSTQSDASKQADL
Prostacyclin receptor, sequence (P43119 whole entry): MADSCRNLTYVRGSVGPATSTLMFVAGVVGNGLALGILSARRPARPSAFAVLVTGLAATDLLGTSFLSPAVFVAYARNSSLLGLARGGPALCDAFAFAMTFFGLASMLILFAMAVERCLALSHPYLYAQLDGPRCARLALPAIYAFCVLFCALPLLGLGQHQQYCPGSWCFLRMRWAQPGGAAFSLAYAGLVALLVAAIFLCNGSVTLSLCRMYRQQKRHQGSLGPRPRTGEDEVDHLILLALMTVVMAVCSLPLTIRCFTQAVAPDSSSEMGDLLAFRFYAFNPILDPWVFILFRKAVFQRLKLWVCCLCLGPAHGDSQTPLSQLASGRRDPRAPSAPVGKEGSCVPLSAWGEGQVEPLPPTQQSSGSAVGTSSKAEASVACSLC
Prostaglandin F2-alpha receptor, sequence (P43088 whole entry): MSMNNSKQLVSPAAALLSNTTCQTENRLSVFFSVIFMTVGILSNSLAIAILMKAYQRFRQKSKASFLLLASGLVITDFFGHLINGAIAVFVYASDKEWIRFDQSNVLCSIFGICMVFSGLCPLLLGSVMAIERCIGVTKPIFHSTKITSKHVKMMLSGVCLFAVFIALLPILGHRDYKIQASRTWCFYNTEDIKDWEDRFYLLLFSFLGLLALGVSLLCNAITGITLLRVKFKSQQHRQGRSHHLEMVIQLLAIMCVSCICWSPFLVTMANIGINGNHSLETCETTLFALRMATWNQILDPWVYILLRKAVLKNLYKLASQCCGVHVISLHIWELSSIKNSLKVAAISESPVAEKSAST

COc1cccc(OC)c1C1(C(=O)NS(=O)(=O)Cc2ccc(N3Cc4c(c(OCC(F)(F)F)c5cccnc5c4OCC(F)(F)F)C3=O)c(C)c2)CC1
pKi [1]: 7.28 | pKi [2]: 5.57 | pKi [3]: 6.52 | pKi [4]: < 5.05 | pKi [5]: 7.41 | pKi [6]: 6.47 | pKi [7]: 5.70 | ED50 [8]: 5 µg/kg | pKi [9]: 9.10 | pKi [10]: 8.80

CCOc1c2c(c(OCC)c3ncccc13)CN(c1ccc(CS(=O)(=O)[N-]C(=O)Cc3ccccc3OC)cc1C)C2=O.[Na+]
half-life [11]: 4.1 h | clearance [12]: 0.4 mL/min/kg | Vd [13]: 0.1 L/kg | bioavailability [14]: > 99% | half-life [15]: 2.7 h | clearance [16]: 7.8 mL/min/kg | Vd [17]: 1.6 L/kg | bioavailability [18]: 18% | half-life [19]: 8.6 h | clearance [20]: 3.6 mL/min/kg | Vd [21]: 0.6 L/kg | bioavailability [22]: 49%

COc1cccc(OC)c1C1(C(=O)[N-]S(=O)(=O)Cc2ccc(N3Cc4c(c(OCC(F)(F)F)c5cccnc5c4OCC(F)(F)F)C3=O)c(C)c2)CC1.[Na+]
Vd [23]: 0.7 L/kg | bioavailability [24]: 73% | half-life [25]: 14.8 h | clearance [26]: 0.6 mL/min/kg | Vd [27]: 0.7 L/kg | remaining at 2 h, 20 µM [28]: 39% | clearance [29]: 0.2 mL/min/kg | Vd [30]: 0.3 L/kg | clearance [31]: 2 mL/min/kg | half-life [32]: 3.8 h | bioavailability [33]: 40% | remaining at 2 h, 20 µM [34]: 20% | remaining at 2 h, 20 µM [35]: 6% | Vd [36]: 0.2 L/kg | half-life [37]: 13.2 h | bioavailability [38]: 69% | remaining at 2 h, 20 µM [39]: 36% | half-life [40]: 3.5 h | bioavailability [41]: 44% | clearance [42]: 2.6 mL/min/kg

CCOc1c2c(c(OCC)c3ncccc13)CN(c1ccc(CS(=O)(=O)NC(=O)Cc3ccccc3OC)cc1C)C2=O
pKi [1]: 5.92 | pKi [2]: 5.40 | pKi [3]: 5.72 | pKi [4]: < 5.15 | pKi [5]: 6.20 | pKi [6]: 5.70 | pKi [7]: < 5.15 | pKi [9]: 9.13 | pKi [10]: 8.44
